Nine compounds from patent publication US20090275555A1, “Substituted indole ligands for the ORL-1 receptor” (priority 2004, published 2009) can be followed below.

Counter-ions that a name gives are not always drawn. Like-named read-outs stand apart in the source and are kept apart here.

Broadly, the Ki is a measure of affinity in units of concentration, obtained from inhibition or displacement.

The target in test [1] is ORL-1 receptor (Homo sapiens, UniProt P41146). Description: Receptor binding studies, radioligand [3H]-AcRYYRWK-NH2. How it is done: The receptor binding studies were carried out on 96-well plates; the incubation medium was Tris HCl pH 7.4 (4° C.) containing MgCl2 (5 mM), EGTA (0.2 mM), BSA (0.1%), with a final volume of 1.0 ml, using as radioligand [^3H]-AcRYYRWK-NH2 (Amersham, 103 Ci/mmol). The samples were incubated at 37° C. for 120 min. and were then filtered off via Whatman GF/B filters pre-treated with 0.2% polyethylenimine. The filters were washed three times with Tris HCl buffer pH 7.4 (4° C.). The radioactivity present on the filters was measured using a Packard Top Count microplate scintillation counter.
Chain of ORL-1 receptor (Homo sapiens, UniProt P41146) (P41146 whole entry): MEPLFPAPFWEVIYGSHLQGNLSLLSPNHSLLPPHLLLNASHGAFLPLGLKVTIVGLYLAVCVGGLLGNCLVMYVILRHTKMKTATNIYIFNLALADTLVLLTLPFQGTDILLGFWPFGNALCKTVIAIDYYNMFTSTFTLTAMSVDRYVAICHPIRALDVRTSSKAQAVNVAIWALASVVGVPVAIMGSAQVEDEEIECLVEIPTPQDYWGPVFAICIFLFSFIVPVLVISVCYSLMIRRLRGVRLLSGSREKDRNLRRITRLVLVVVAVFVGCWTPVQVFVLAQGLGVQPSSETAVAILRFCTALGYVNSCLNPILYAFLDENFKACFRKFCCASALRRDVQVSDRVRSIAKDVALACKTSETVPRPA

The target of test [2] is T1, ORL-1 receptor (Cavia porcellus, UniProt P47748).
T1 construct: evaluated for ORL-1 functional activity in electrically stimulated guinea pig ileum; from tissue; host or cells: guinea pig ileum
T1 sequence (P47748 whole entry): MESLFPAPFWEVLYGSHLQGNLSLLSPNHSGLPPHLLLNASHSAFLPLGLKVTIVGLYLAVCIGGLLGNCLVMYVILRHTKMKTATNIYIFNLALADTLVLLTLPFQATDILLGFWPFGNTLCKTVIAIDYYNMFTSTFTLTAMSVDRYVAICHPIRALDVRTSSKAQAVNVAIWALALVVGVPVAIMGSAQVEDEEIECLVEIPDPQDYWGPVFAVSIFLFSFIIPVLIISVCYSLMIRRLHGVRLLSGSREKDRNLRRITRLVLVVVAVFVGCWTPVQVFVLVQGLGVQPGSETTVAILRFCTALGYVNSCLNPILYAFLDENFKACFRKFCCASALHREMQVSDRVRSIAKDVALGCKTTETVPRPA
Description: Electrically stimulated guinea pig ileum (GPI) assay. The class given is cell-based. How it is done: Compounds of the invention are evaluated for ORL-1 functional activity in electrically stimulated guinea pig ileum, in agreement with the experimental protocol described in Caló et. al., Br. J. Pharmacol. 129, 1183, (2000). The ORL-1 antagonist activity (pKb) is evaluated against the endogenous ORL-1 agonist N/OFQ.

The mark [3] stands for this setting: ORL-1 receptor, radioligand [3H]-AcRYYRWK-NH2, read-out: Binding affinity Ki.
Where [4] appears, read: electrically stimulated guinea pig ileum, against the endogenous ORL-1 agonist N/OFQ, read-out: Antagonist activity (GPI) pKb vs N/OFQ (converted).

`Cc1cccc(C)c1C1CCN(Cc2c(C(=O)N3CCN(CCOCCO)CC3)[nH]c3ccccc23)CC1` [Example 97, {3-[4-(2,6-Dimethyl-phenyl)-piperidin-1-ylmethyl]-1H-indol-2-yl}-{4-[2-(2-hydroxy-ethoxy)-ethyl]-piperazin-1-yl}-methanone] registered a Ki on ORL-1 receptor [1] of 6.5 nM. Further, the Kb at ORL-1 receptor [2] is 1 nM.

Take `Cc1cccc(C)c1C1CCN(Cc2c(-c3ccccc3)n(CC(=O)NC3CCN(C)CC3)c3ccccc23)CC1` [Example 165, 2-{3-[4-(2,6-Dimethyl-phenyl)-piperidin-1-ylmethyl]-2-phenyl-indol-1-yl}-N-(1-methyl-piperidin-4-yl)-acetamide ditrifluoroacetate]: the inhibitory constant (Ki) at ORL-1 receptor [1] (setting [3]) was found to be 4.6 nM. This compound gave a Kb at ORL-1 receptor [2] of 4.17 nM.

With `NC(=O)Cn1c(-c2ccccc2)c(CN2CCC(c3c(Cl)cccc3Cl)CC2)c2ccccc21` [Example 143, 2-(3-[4-(2,6-Dichloro-phenyl)-piperidin-1-ylmethyl]-2-phenyl-indol-1-yl)-acetamide], the Ki on ORL-1 receptor [1] (setting [3]) was determined as 3.2 nM. The Kb on ORL-1 receptor [2] (setting [4]) was 2.24 nM.

With `Cc1cccc(C)c1C1CCN(Cc2c(C(=O)N3CCC4(CCN(C)C4)C3)[nH]c3ccccc23)CC1` (stereo not drawn) [Example 109, {3-[4-(2,6-Dimethyl-phenyl)-piperidin-1-ylmethyl]-1H-indol-2-yl}-(7-methyl-2,7-diaza-spiro[4.4]non-2-yl)-methanone], at ORL-1 receptor [1] (setting [3]), the Ki came out at 5.4 nM. The Kb at ORL-1 receptor [2] (setting [4]) is 1.23 nM.

As to `O=C(c1[nH]c2ccccc2c1CN1CCC(c2c(Cl)cccc2Cl)CC1)N1CCN(CCCO)CC1` [Example 75, {3-[4-(2,6-Dichloro-phenyl)-piperidin-1-ylmethyl]-1H-indol-2-yl}-[4-(3-hydroxy-propyl)-piperaizn-1-yl]-methanone], the inhibition constant (Ki) at ORL-1 receptor [1] (setting [3]) worked out at 1.5 nM. On ORL-1 receptor [2] (setting [4]), the Kb was 3.02 nM.

In the case of `NC(=O)Cn1c(C(=O)N2CCOCC2)c(CN2CCC(c3c(Cl)cccc3Cl)CC2)c2ccccc21` [Example 150, 2-[3-[4-(2,6-Dichloro-phenyl)-piperidin-1-ylmethyl]-2-(morpholine-4-carbonyl)-indol-1-yl]-acetamide hydrochloride], at ORL-1 receptor [1] (setting [3]), the inhibitory constant (Ki) came out at 8 nM. At ORL-1 receptor [2], this compound showed a Kb of 8.91 nM.

As to `Cc1cccc(C)c1C1CCN(Cc2c(C(=O)N3C[C@@H]4C[C@H]3CO4)[nH]c3ccccc23)CC1` [Example 96], on ORL-1 receptor [1] (setting [3]), the Ki was 10 nM. Also, the Kb on ORL-1 receptor [2] (setting [4]) was 1.95 nM.

`CN1CCC(NC(=O)Cn2c(-c3ccccc3)c(CN3CCC(c4c(Cl)cccc4Cl)CC3)c3ccccc32)CC1` [Example 160, 2-{3-[4-(2,6-Dichloro-phenyl)-piperidin-1-ylmethyl]-2-phenyl-indol-1-yl}-N-(1-methyl-piperidin-4-yl)-acetamide] gave a Ki on ORL-1 receptor [1] of 0.7 nM. At ORL-1 receptor [2], the Kb is 1.74 nM.

As to `CN1CCC(NC(=O)Cn2c(C(=O)N3CCOCC3)c(CN3CCC(c4c(Cl)cccc4Cl)CC3)c3ccccc32)CC1` [Example 161, 2-[3-[4-(2,6-Dichloro-phenyl)-piperidin-1-ylmethyl]-2-(morpholine-4-carbonyl)-indol-1-yl]-N-(1-methyl-piperidin-4-yl)-acetamide dihydrochloride], the Ki at ORL-1 receptor [1] (setting [3]) was determined as 8.2 nM. Besides, on ORL-1 receptor [2] (setting [4]), the Kb was 0.955 nM.
